Experimental data taken from patent US20170283458A1, “COLLAGEN-BINDING SYNTHETIC PEPTIDOGLYCANS FOR WOUND HEALING” (Symic Biomedical, Inc., priority 2009, published 2017).
Ends that are not written are not given here.

Columns and labels:
[1] = target: T1, collagen type I gels (Bos taurus, UniProt P02453+P02465); assay: Viscoelastic characterization of collagen type I gels (rheometer); format: biochemical; conditions: varying ratios of collagen to additive, vs untreated collagen
T1 construct: purchased Inamed, Freemont, Calif; Nutragen
T1 sequence (P02453 162-1217 limits assumed): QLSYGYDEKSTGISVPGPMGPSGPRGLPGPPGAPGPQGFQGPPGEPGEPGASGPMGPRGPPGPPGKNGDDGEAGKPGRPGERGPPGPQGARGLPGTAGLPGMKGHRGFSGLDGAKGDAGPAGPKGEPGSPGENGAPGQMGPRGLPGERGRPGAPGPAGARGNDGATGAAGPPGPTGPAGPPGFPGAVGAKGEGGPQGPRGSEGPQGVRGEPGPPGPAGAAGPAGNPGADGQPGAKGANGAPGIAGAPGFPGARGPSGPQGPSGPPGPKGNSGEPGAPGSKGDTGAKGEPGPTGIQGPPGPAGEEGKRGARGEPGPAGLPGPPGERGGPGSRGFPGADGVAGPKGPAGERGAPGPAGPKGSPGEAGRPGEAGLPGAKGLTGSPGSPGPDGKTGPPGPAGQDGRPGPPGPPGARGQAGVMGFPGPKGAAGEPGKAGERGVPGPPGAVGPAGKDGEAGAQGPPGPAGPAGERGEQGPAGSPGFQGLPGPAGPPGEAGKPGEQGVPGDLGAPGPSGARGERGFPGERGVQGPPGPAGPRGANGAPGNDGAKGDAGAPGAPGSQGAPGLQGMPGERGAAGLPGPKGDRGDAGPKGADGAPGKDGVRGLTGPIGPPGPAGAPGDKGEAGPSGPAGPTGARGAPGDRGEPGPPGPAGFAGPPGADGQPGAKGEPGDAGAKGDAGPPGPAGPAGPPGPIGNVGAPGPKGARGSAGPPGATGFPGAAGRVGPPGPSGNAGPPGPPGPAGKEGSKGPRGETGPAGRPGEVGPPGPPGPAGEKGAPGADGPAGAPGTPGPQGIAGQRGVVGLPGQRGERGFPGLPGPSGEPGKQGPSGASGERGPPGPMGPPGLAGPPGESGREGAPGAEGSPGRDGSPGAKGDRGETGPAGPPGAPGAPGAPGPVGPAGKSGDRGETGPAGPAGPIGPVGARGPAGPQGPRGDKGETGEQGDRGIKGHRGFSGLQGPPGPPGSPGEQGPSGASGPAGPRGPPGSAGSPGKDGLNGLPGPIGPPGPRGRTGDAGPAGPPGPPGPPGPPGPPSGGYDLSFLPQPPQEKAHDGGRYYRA
T1 sequence (P02465 80-1117 limits assumed): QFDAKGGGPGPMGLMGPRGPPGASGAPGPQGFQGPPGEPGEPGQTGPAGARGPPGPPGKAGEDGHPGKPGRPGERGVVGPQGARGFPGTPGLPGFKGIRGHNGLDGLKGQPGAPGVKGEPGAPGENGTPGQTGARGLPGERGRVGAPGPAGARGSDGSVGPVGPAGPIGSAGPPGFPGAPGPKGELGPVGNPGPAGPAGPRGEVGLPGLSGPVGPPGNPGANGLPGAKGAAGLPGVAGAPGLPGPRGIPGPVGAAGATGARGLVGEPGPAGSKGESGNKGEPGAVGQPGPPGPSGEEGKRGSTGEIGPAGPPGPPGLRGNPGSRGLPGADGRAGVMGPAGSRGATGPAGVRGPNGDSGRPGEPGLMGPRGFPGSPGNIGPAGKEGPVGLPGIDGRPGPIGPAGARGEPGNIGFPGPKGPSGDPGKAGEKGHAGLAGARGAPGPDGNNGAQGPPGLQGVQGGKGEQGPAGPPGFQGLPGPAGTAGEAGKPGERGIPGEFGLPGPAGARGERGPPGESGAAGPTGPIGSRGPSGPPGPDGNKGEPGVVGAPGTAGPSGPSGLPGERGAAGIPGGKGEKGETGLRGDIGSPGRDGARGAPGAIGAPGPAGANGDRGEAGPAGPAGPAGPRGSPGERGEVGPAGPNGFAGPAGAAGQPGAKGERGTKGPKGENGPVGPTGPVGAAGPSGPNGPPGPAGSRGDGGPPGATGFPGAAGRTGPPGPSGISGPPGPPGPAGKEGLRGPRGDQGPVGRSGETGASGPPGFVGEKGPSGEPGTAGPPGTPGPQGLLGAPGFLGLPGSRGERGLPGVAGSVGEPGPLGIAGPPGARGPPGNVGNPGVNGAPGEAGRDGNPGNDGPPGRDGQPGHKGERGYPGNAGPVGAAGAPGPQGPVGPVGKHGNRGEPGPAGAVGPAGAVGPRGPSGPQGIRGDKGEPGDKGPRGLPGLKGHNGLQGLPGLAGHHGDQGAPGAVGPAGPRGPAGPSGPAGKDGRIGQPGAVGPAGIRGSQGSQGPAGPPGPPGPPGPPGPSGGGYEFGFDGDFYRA
Experimental: Gels were made with Nutragen collagen (Inamed, Freemont, Calif.) at a final concentration of 4 mg/mL collagen. Nutragen stock is 6.4 mg/mL in 10 mM HCl. Gel preparation was performed on ice, and fresh samples were made before each test. The collagen solution was adjusted to physiologic pH and salt concentration, by adding appropriate volumes of 10×PBS (phosphate buffered saline), 1×PBS, and 1M NaOH. For most experiments, samples of DS, decorin, DS-SILY, or DS-Dc13 were added at a 10:1 collagen:treatment molar ratio by a final 1×PBS addition (equal volumes across treatments) in which the test samples were dissolved at appropriate concentrations. In this way, samples are constantly kept at pH 7.4 and physiologic salt concentration. Collagen-alone samples received a 1×PBS addition with no sample dissolved. Fibrillogenesis will be induced by incubating neutralized collagen solutions at 37° C. overnight in a humidified chamber to avoid dehydration. Gel solutions with collagen:treatment molar ratios of other than 10:1 were prepared similarly. Collagen gels were prepared as described in EXAMPLE 16 and prior to heating, 200 μL of each treatment were pipetted onto the wettable surface of hydrophobically printed slides (Tekdon). The PTFE printing restricted gels to the 20 mm diameter wettable region. Gels were formed in a humidified incubator at 37° C. overnight prior to mechanical testing. […]

[2] = tested on: Human dermal fibroblasts; assay: TGF-β1 production by human dermal fibroblasts (ELISA); format: cell-based; conditions: 1.4 μM treatment, 48 hours
Experimental: Human dermal fibroblasts (Cascade Biologics) were seeded onto 96-well tissue culture polystyrene plates at a seeding density of 1.83×10^3 cells/well. Cells adhered overnight and cell medium was aspirated. 100 μL/well of cell medium containing a final concentration of 1.4 μM treatment delivered from a concentrated solution of treatment in 1×PBS was added to the cells. After 48 hours, cell medium was removed and frozen at −80 C until further testing. TGF-β1 was measured by ELISA using a kit and protocol from R&D Systems.

[3] = tested on: HCA SMCs; assay: Measurement of elastin (Fastin assay) in cell-seeded collagen gels; format: cell-based, human; conditions: gels cultured for 10 days
Experimental: Collagen gels seeded with HCA SMCs were prepared as described in EXAMPLE 30. Differentiation medium was changed every three days and gels were cultured for 10 days. Collagen gels containing no cells were used as a control. Gels were rinsed in 1×PBS overnight to remove serum protein, and gels were tested for elastin content using the Fastin elastin assay per manufacturers protocol (Biocolor, County […].). Briefly, gels were solubilized in 0.25 M oxalic acid by incubating at 100° C. for 1 hr. Elastin was precipitated and samples were then centrifuged at 11,000×g for 10 min. The solubilized collagen supernatant was removed and the elastin pellet was stained by Fastin Dye Reagent for 90 min at room temperature. Samples were centrifuged at 11,000×g for 10 min and unbound dye in the supernatant was removed. Dye from the elastin pellets was released by the Fastin Dye Dissociation Reagent, and 100 μL samples were transferred to a 96-well plate (Costar). Absorbance was measured at 513 nm, and elastin content was calculated from an α-elastin standard curve.

[4] = target: T2, collagen (Bos taurus, UniProt P02453+P02465); assay: Fibrillogenesis turbidity assay (absorbance at 313 nm); format: biochemical
T2 construct: purchased Inamed, Freemont, Calif; Nutragen
T2 sequence (P02453 162-1217 limits assumed): as the sequence (P02453 162-1217 limits assumed) above
T2 sequence (P02465 80-1117 limits assumed): as the sequence (P02465 80-1117 limits assumed) above
Experimental: (§1) Gels were made with Nutragen collagen (Inamed, Freemont, Calif.) at a final concentration of 4 mg/mL collagen. Nutragen stock is 6.4 mg/mL in 10 mM HCl. Gel preparation was performed on ice, and fresh samples were made before each test. The collagen solution was adjusted to physiologic pH and salt concentration, by adding appropriate volumes of 10×PBS (phosphate buffered saline), 1×PBS, and 1M NaOH. For most experiments, samples of DS, decorin, DS-SILY, or DS-Dc13 were added at a 10:1 collagen:treatment molar ratio by a final 1×PBS addition (equal volumes across treatments) in which the test samples were dissolved at appropriate concentrations. In this way, samples are constantly kept at pH 7.4 and physiologic salt concentration. Collagen-alone samples received a 1×PBS addition with no sample dissolved. Fibrillogenesis will be induced by incubating neutralized collagen solutions at 37° C. overnight in a humidified chamber to avoid dehydration. Gel solutions with collagen:treatment molar ratios of other than 10:1 were prepared similarly.
Collagen fibrillogenesis was monitored by measuring turbidity related absorbance at 313 nm providing information on rate of fibrillogenesis and fibril diameter. Gel solutions were prepared as described in EXAMPLE 16 (4 mg/mL collagen, 10:1 collagen:treatment, unless otherwise indicated) and 50 uL/well were added at 4° C. to a 384-well plate. The plate was kept at 4° C. for 4 hours before initiating fibril formation. A SpectraMax M5 at 37° C. was used to measure absorbance at 313 nm at 30 s intervals for 6 hours.
A fibrillogenesis assay as described for DS-SILY, EXAMPLE 19, performed with the conjugate DS-Dc13.

[5] = tested on: Human coronary artery smooth muscle cells (HCA SMC); assay: Gel compaction by smooth muscle cells in collagen gels; format: cell-based
Experimental: Human coronary artery smooth muscle cells (HCA SMC) (Cascade Biologics) were cultured in growth medium (Medium 231 supplemented with smooth muscle growth factor). Cells from passage 3 were used for all experiments. Differentiation medium (Medium 231 supplemented with 1% FBS and 1× pen/strep) was used for all experiments unless otherwise noted.
Collagen gels were prepared with each additive as described with the exception that the 1×PBS example addition was omitted to accommodate the addition of cells in media. After incubating on ice for 30 min, HCA SMCs in differentiation medium were added to the gel solutions to a final concentration of 1×10^6 cells/mL. Gels were formed in quadruplicate in 48-well non-tissue culture treated plates (Costar) for 6 hrs before adding 500 μL/well differentiation medium. Gels were freed from the well edges after 24 hrs. Medium was changed every 2-3 days and images for compaction were taken at the same time points using a Gel Doc System (Bio-Rad). The cross-sectional area of circular gels correlating to degree of compaction was determined using ImageJ software (NIH). Gels containing no cells were used as a negative control and cells in collagen gels absent additive were used as a positive control. […] By day 10 all gels had compacted to approximately 10% of the original gel area, and differences between additives were small.

[6] = target: T3, collagen I (Bos taurus, UniProt P02453+P02465); assay: Cryo-SEM measurements on collagen I, fibril diameter; format: biochemical; conditions: 4 mg/mL collagen, 10:1 collagen:treatment, cryo-SEM 20,000×
T3 construct: purchased Inamed, Freemont, Calif; Nutragen
T3 sequence (P02453 162-1217 limits assumed): as the sequence (P02453 162-1217 limits assumed) above
T3 sequence (P02465 80-1117 limits assumed): as the sequence (P02465 80-1117 limits assumed) above
Experimental: as §1
Gels for cryo-SEM were formed, as in EXAMPLE 16, directly on the SEM stage and incubated at 37° C. overnight. The stages were then secured in a cryo-holder and plunged into liquid nitrogen slush. Samples were then transferred to a Gatan Alto 2500 pre-chamber cooled to −170° C. under vacuum. A free-break surface was created with a cooled scalpel, and each sample evaporated under sublimation conditions for 20 min. The sample was coated by platinum sputter coating for 120 s. Samples were transferred to the cryo-stage at −130° C. and regions with similar orientation were imaged for comparison across treatments. Analysis of the images was performed to determine the fibril diameter distribution, presented in histograms adjacent the corresponding image in FIG. 14, and average fibril diameter, FIG. 17 an 18;. Fibril diameter was calculated using ImageJ software (NIH) measuring individual fibrils by hand (drawing a line across fibrils and measuring its length after properly setting the scale). At least 45 independent fibril measurement were recorded for average fibril diameter calculations.

[7] = target: T4, collagen gels (Bos taurus, UniProt P02453+P02465); assay: Cryo-SEM measurement of fibril density; format: biochemical; conditions: 10:1 molar ratio, cryo-SEM 10,000×
T4 construct: purchased Inamed, Freemont, Calif; Nutragen
T4 sequence (P02453 162-1217 limits assumed): as the sequence (P02453 162-1217 limits assumed) above
T4 sequence (P02465 80-1117 limits assumed): as the sequence (P02465 80-1117 limits assumed) above
Experimental: Collagen gels were formed in the presence of each additive at a 10:1 molar ratio, as described in EXAMPLE 16, directly on the SEM stage, processed, and imaged as described. Images at 10,000× were analyzed for fibril density calculations. Images were converted to 8-bit black and white, and threshold values for each image were determined using ImageJ software (NIH). The threshold was defined as the value where all visible fibrils are white, and all void space is black. The ratio of white to black area was calculated using MatLab software. All measurements were taken in triplicate and thresholds were determined by an observer blinded to the treatment.

[8] = tested on: collagen; assay: SILY binding to collagen (Biacore surface plasmon resonance)
Experimental: Biacore studies were performed on a Biacore 2000 using a CM-3 chip (Biacore, Inc., Piscataway, N.J.). The CM-3 chip is coated with covalently attached carboxymethylated dextran, which allows for attachment of the substrate collagen via free amine groups. Flow cells (FCs) 1 and 2 were used, with FC-1 as the reference cell and FC-2 as the collagen immobilized cell. Each FC was activated with EDC-NHS, and 1500RU of collagen was immobilized on FC-2 by flowing 1mg/mL collagen in sodium acetate, pH 4, buffer at 5 μL/min for 10 min. Unreacted NHS-ester sites were capped with ethanolamine; the control FC-1 was activated and capped with ethanolamin.
To determine peptide binding affinity, SILY was dissolved in 1× HBS-EP buffer (Biacore) at varying concentrations from 100 uM to 1.5 μm in 2-fold dilutions. […] The first 10 injections were buffer injections, which help to prime the system, followed by randomized sample injections, run in triplicate. Analysis was performed using BIAevaluation software (Biacore).

[9] = tested on: Human aortic smooth muscle cells; assay: Collagen remodeling: hydroxyproline content in medium of cell-seeded collagen gels; format: cell-based; conditions: vs collagen alone; cultures up to 30 days
Experimental: Following a method by Grassl, et al. (Grassl, et al., Journal of Biomedical Materials Research 2002, 60, (4), 607-612), which is herein incorporated in its entirety, collagen gels with or without synthetic PG mimics were formed as described in EXAMPLE 16. Human aortic smooth muscle cells (Cascade Biologics, Portland, Oreg.) were seeded within collagen gels by adding 4×10^6 cells/mL to the neutralized collagen solution prior to incubation. The cell-collagen solutions were pipetted into an 8-well Lab-Tek chamber slide and incubated in a humidified 37° C. and 5% CO2 incubator. After gelation, the cell-collagen gels will be covered with 1 mL Medium 231 as prescribed by Cascade. Every 3-4 days, the medium was removed from the samples and the hydroxyproline content measured by a standard hydroxyproline assay (Reddy, 1996).
To measure degraded collagen in the supernatant medium, the sample was lyophilized, the sample hydrolyzed in 2M NaOH at 120° C. for 20 min. After cooling, free hydroxyproline was oxidized by adding chloramine-T (Sigma) and reacting for 25 min at room temperature. Ehrlich's aldehyde reagent (Sigma) was added and allowed to react for 20 min at 65° C. and followed by reading the absorbance at 550 nm on an M-5 spectrophotometer (Molecular Devices). […] Cultures were incubated for up to 30 days and three samples of each treatment measured. […]

reversibility of binding to collagen ([8]; association/disassociation curves, FIG. 2) | Kd ([8]; calculated from the on-off binding kinetics, collagen immobilized on CM-3 chip) | Substance | stiffness of collagen gel (storage modulus G') [1] | TGF-β1 in cell medium [2] | elastin production [3] | rate of fibrillogenesis ([4]; 4 mg/mL collagen, 10:1 collagen:treatment unless otherwise indicated) | fibrillogenesis and overall absorbance ([4]; 1:1 or 10:1 collagen to treatment, FIG. 12) | gel compaction at early time points ([5]; Days 3 and 5) | gel compaction ([5]; day 10) | average fibril diameter [6] | fibril density (ratio of fibril containing area to void space) [7] | collagen degradation measured by hydroxyproline content in cell medium [9]
– | – | dermatan sulfate [reference compound] | increase the stiffness of the resulting collagen gel over untreated collagen | significantly decreased TGF-β1 | significantly decreased elastin production over untreated collagen | – | – | – | – | – | – | –
– | – | DS-Dc13: dermatan sulfate conjugated via PDPH to Dc13 peptide, molar ratio about 1 (SYIRIADTNITGC; also: dermatan sulfate conjugate via PDPH, molar ratio about 1, site not given here) | increase the stiffness of the resulting collagen gel over untreated collagen | – | significantly decreased elastin production over untreated collagen | decrease the rate of fibrillogenesis | delays fibrillogenesis and decreases overall absorbance in a dose-dependent manner | significantly compacted more than gels made of collagen alone or collagen with dermatan sulfate | slightly, but significantly, less compact than gels treated with decorin or collagen | significant decrease in average fibril diameter | not significant compared to collagen | –
binds reversibly with collagen | 1.2 µM | RRANAALKAGELYKSILYGC | – | significantly decreased TGF-β1 | – | – | – | – | – | significant decrease in average fibril diameter | significantly greater fibril density | greater collagen degradation compared to collagen alone
